Measurements: US6638981B2, “Topical compositions and methods for treating pain” (EpiCept Corporation, priority 2001, dated 2003)
Counter-ions that a name gives are not always drawn.

Assay: Chemical and physical stability studies under ICH storage conditions (extraction, HPLC, appearance)
Type: physicochemical
Details: in Composition A; for calculated initial percentage of actives: before storage, HPLC; for calc. percentage of actives after storage for one month, 25° C. / calc. percentage of actives after storage for two months, 25° C.: 25° C./60% RH; for calc. percentage of actives after storage for one month, 30° C. / calc. percentage of actives after storage for two months, 30° C.: 30° C./60% RH; for calc. percentage of actives after storage for one month, 40° C. / calc. percentage of actives after storage for two months, 40° C.: 40° C./75% RH

| SMILES | calculated initial percentage of actives [%] | calc. percentage of actives after storage for one month, 25° C. [%] | calc. percentage of actives after storage for two months, 25° C. [%] | calc. percentage of actives after storage for one month, 30° C. [%] | calc. percentage of actives after storage for two months, 30° C. [%] | calc. percentage of actives after storage for one month, 40° C. [%] | calc. percentage of actives after storage for two months, 40° C. [%] |
| --- | --- | --- | --- | --- | --- | --- | --- |
| CN(C)CCC=C1c2ccccc2CCc2ccccc21 [Amitriptyline Hydrochloride, Amitriptyline hydrochloride] | 102.5 | 103 | 101 | 102 | 102 | 103 | 102 |
| CNC1(c2ccccc2Cl)CCCCC1=O (stereo not shown) [Ketamine Hydrochloride, Ketamine hydrochloride] | 100.4 | 103 | 100 | 102 | 100 | 103 | 102 |
| COC(=O)c1ccc(O)cc1 [Methylparaben] | 104.4 | 103 | 101 | 102 | 102 | 102 | 102 |
| CCCOC(=O)c1ccc(O)cc1 [Propylparaben] | 101.8 | 102 | 102 | 102 | 103 | 102 | 103 |
